Measured values reported in patent US10624346B2, “Herbicidal composition and method for controlling weeds” (Sumitomo Chemical Company, Limited, priority 2016, dated 2020).

Tests used:
Echinochloa crus-galli = assay: Greenhouse pot test, post-emergence spray, herbicidal effect (Examples 202, 203); format: in vivo; settings: sprayed at 2-3 leaf stage, one week
Description: (§1) A plastic pot was filled with a commercially-available culture soil, and thereto inubie (common barnyardgrass; Echinochloa crus-galli) or akinoenokorogusa (giant foxtail; […] When the weeds grew to two to three leaf stage, a spray liquid of the compound X, a spray liquid of dicamba diglycolamine salt, or a spray liquid of the present composition was uniformly sprayed to the whole plants so that the application rate might be a predetermined value. The spray liquid of the present composition was prepared by mixing the spray liquid of the compound X with the spray liquid of dicamba diglycolamine salt. The spray liquid of the compound X was prepared by mixing a predetermined amount of the formulation X with deionized water. […] After applying the spray liquid, the plants were placed in a greenhouse for a week. […] A plastic pot was filled with a commercially-available culture soil, and thereto inubie (common barnyardgrass; Echinochloa crus-galli) or akinoenokorogusa (giant foxtail; […] The spray liquid of the compound X was prepared by mixing a predetermined amount of the formulation X with deionized water. […] After applying the spray liquid, the plants were placed in a greenhouse for a week.

Setaria faberi = assay: as above; format: in vivo; settings: sprayed at 2-3 leaf stage, one week
Description: as §1

[1] = Compound X 5 g/ha alone, scale 0 (no effect) to 100 (completely dead)
[2] = Compound X 10 g/ha alone, scale 0-100
[3] = dicamba salt 50 g/ha alone, scale 0-100
[4] = dicamba salt 500 g/ha alone, scale 0-100

Structure (SMILES) | Herbicidal effect on Echinochloa crus-galli (observed value) (Echinochloa crus-galli; [1]) | Herbicidal effect on Echinochloa crus-galli (observed value) (Echinochloa crus-galli; [2]) | Herbicidal effect on Setaria faberi (observed value) (Setaria faberi; [1]) | Herbicidal effect on Setaria faberi (observed value) (Setaria faberi; [2]) | Herbicidal effect on Echinochloa crus-galli (observed value) (Echinochloa crus-galli; [3]) | Herbicidal effect on Echinochloa crus-galli (observed value) (Echinochloa crus-galli; [4]) | Herbicidal effect on Setaria faberi (observed value) (Setaria faberi; [3]) | Herbicidal effect on Setaria faberi (observed value) (Setaria faberi; [4])
CCOC(=O)COc1ncccc1Oc1cc(-n2c(=O)cc(C(F)(F)F)n(C)c2=O)c(F)cc1Cl [Compound X, ethyl [3-[2-chloro-4-fluoro-5-(1-methyl-6-trifluoromethyl-2,4-dioxo-1,2,3,4-tetrahydropyrimidin-3-yl)phenoxy]-2-pyridyloxy]acetate] | 20 | 35 | 30 | 45 |  |  |  | 
CN(CCCN)CCCN.COc1c(Cl)ccc(Cl)c1C(=O)O [dicamba BAPMA salt, dicamba N,N-bis(3-aminopropyl)methylamine salt] |  |  |  |  | 0 | 5 | 0 | 10
COc1c(Cl)ccc(Cl)c1C(=O)O.NCCOCCO [dicamba diglycolamine salt] |  |  |  |  | 0 | 10 | 0 | 0
